Data: US20130158112A1, “COMPOSITIONS AND METHODS FOR INHIBITING BETA AMYLOID SECRETION” (priority 2011, published 2013)
“And” between values parts separate entries of the source, which are not always exact repeats. Identical values can stand only once. Like-named read-outs stand apart in the source and are kept apart here. Values belong to the compound of their own block, whether it stands above or below them.

Columns and labels:
Aβ secretion [1] = experiment: PKC inhibitors experiment on Aβ secretion; format: cell-based, human; settings: for effect on basal Aβ secretion: PKC inhibitor alone; for effect of PKC inhibitor on compound 1 inhibited Aβ secretion: inhibitor given 30 min prior to compound 1
Protocol: (§1) H4βAPP695 wt cells, a human […] cell line stably transfected with a wtβAPP695 expression vector construct under the control of a CMV promoter (kindly provided by Dr. Chris Eckman from Mayo Clinic, Florida) were cultured as previously described. Twenty-four hours before drug treatment, the media was replaced with serum-free media. Cells were then incubated with drugs (dissolved in DMSO) or vehicle for 24 h for collection of conditioned media and cell lysates. For the PKC inhibitors experiment, three inhibitors were treated 30 min prior to drug challenge. Primary cortical neurons were prepared from embryonic day 18 APP and presenilin 1 (APPswe, PSEN1dE9) transgenic mice on the C57BL/6 genetic background (Jackson Laboratories, strain no. 5864) as previously described. THLE-3 human hepatoma cells (from ATCC) were plated in 24-well plates that were precoated with 10 μg/mL bovine serum albumin, 10 μg/mL fibronectin, and 30 μg/mL bovine type I collagen. The cells were grown in BEGM media (Clonetics) until confluent and treated with drugs at 20 μM for 24 h. This conditioned media was harvested, diluted 1:1 in serum-free medium, and incubated with H4βAPP695 wt cells for 24 h prior to analysis of secreted Aβ, which was compared to the effect of 10 μM drug treatments without prior incubation with the THLE-3 cells. Caco-2 cells (ATCC) were plated in 12-well plates with Transwell inserts (Costar) at 70000 cells per well and grown for 21 days. The media volume of the apical and basal chambers was 0.5 and 1.5 mL, respectively. Transepithelial resistance was measured in each well and found to be >160 Ω/cm^2. Drugs at 40 μM and 20 μg/mL of lucifer yellow were added in serum-free medium to the apical chamber. Four hours later, the basal chamber media was harvested and used to measure lucifer yellow fluorescence to confirm monolayer integrity as well as for treatment of H4βAPP695 wt cells for 24 h prior to analysis of secreted Aβ, which was compared to the effect of direct addition of 10 μM of the corresponding drug.
The tumor promoter phorbal myristate acetate is an activator of protein kinase C (PKC) that has been reported to activate α-secretase activity. Thus, we wanted to determine if protein kinase C inhibitors could block the effect of compound 1 on Aβ secretion.

Aβ secretion [2] = experiment: Secreted total Aβ ELISA in conditioned media of H4βAPP695 wt cells; format: cell-based, human; settings: for inhibition at 30 µM / inhibition at 10 µM: Homo sapiens, 24 h, H4βAPP695 wt cells; for inhibition at 30 µM: read-out: Total Aβ (% decrease) 30 μM Mean; for Aβ secretion inhibiting activity (structure activity summary): in words; for inhibition at 10 µM: read-out: Total Aβ (% decrease) 10 μM Mean
Outline: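 H4 […] cells stably expressing wild-type βAPP695 (CMV promoter), serum-starved 24 h, then exposed to drug in DMSO or vehicle for 24 h before Aβ in conditioned media was measured. Primary cortical neurons came from E18 APPswe/PSEN1dE9 mice on C57BL/6 background.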

[3] = test system: THLE-3 human hepatoma cells; experiment: Drug activity persistence after incubation with THLE-3 hepatoma cells; format: in vitro ADME; settings: for inhibition at 10 µM: Homo sapiens, THLE3, 24 h; for % remaining Activity: after 24 h incubation with hepatoma cells
Protocol: as §1
To screen for resistance to metabolism, 1 and eight noncytotoxic analogues with >50% Aβ reducing activity (compounds 27, 29, 48, 52, 53, 65, 73, and 76) were incubated at 20 μM for 24 h with or without THLE-3 human hepatoma cells.

Caco-2 cells = experiment: Epithelial transcellular transport of drug activity through Caco-2 monolayers; format: in vitro ADME; settings: for % theoretical activity: % of activity passing through Caco-2 monolayer; for inhibition at 10 µM / inhibition at up to 10 µM: Homo sapiens; for inhibition at 10 µM: Caco-2, 10 μM drug alone added directly to H4βAPP695 wt cells, read-out: transcellular transport No total Aβ (% decrease); for inhibition at up to 10 µM: Caco-2, 4 h, lower chamber media after 4 h on Caco-2 monolayer, 10 μM if in equilibrium, read-out: transcellular transport Yes total Aβ (% decrease)
Protocol: as §1
Monolayer integrity was confirmed by high levels of transcellular electrical resistance (>160 ohms/cm^2) and by transcellular impermeability to the fluorescent dye lucifer yellow. […] The concentration of each compound added to the upper chamber would lead to 10 μM in the lower chamber if equilibration was complete, and thus the activity of the lower chamber media was compared to the activity of 10 μM drug added directly to the H4βAPP695 wt cells. […] Compound 1 crossed the monolayer and the bottom chamber media led to a 27% reduction in Aβ production, yielding 38% of the theoretical activity. The compound with the most activity in the lower chamber was compound 48, which decreased Aβ production by 50%, with 71% of its theoretical activity. […] On the basis of the combined activity data from these last two studies, compound 48 was selected as the lead drug for in vivo study.

cerebral Aβ levels [4] = experiment: In vivo iv administration and cerebral Aβ assay; parameters: species or system mouse; settings: APP/PS1 transgenic mice, iv 100 to 125 mg/kg single dose, 6 h
Protocol: Transgenic mice expressing humanized mutant versions of APP and presenilin 1 (APPswe, PSEN1dE9) on the C57BL/6 genetic background were obtained from Jackson Laboratories (strain no. 5864) and bred to wild type C57BL/6 mice in order to obtain ˜50% transgenic that were used in these studies. These mice develop Aβ senile plaques by 6 months of age. To prepare the drug stock, 17.5 mg of compound 48 was dissolved in 40 μL of DMSO, which was mixed sequentially with 110 μL of Cremophor EL (Sigma) and 900 μL of sterile saline. Two month old female transgenic mice weighing 20-25 g were anesthetized with ketamine/xylazine and injected iv via the retroorbital plexus with vehicle control or with 2.5 mg of compound 48 in 150 μL of the drug stock (yielding a dose of ˜100 to 125 mg/kg). Six h later, the mice were euthanized by CO2 inhalation, the brains were removed, and the cerebellum discarded. One brain hemisphere was homogenized for 45 s on ice using a tissue grinder in 1 mL of solution containing 5 M guanadine HCl, 50 mM Tris (final pH adjusted to 8.3), and 5% protease inhibitor cocktail. Any debris was removed by centrifugation for 10 min at 2000 g. The supernatant was diluted 1:10 in 20% casein blocker in PBS with 5% protease inhibitor cocktail. […] The protein concentration of the brain homogenate was determined with the BCA assay, and the total Aβ levels were normalized to brain protein levels. […]

cerebral Aβ levels [5] = experiment: Oral treatment and cerebral Aβ ELISA in mutant APP/PS1 transgenic mice; format: in vivo, mouse; settings: 3 oral gavages, estimated 200 mg/kg in Cremaphor over 1.5 day
Protocol: (§2) In this Example, mutant APP/PS1 transgenic mice were obtained from Dr. Mathias Jucker (R Radde et al. 2006, EMBO Reports 7:940-946). […] The drug was milled into the chow diet (Harlan Teklad #2018) at 4 doses: 0.31, 0.62, 1.25, and 2.5 g/kg. Assuming each mouse eats 4 g of per day, the lowest dose should yield 1.24 mg intake per day, or about 75 mg/kg body weight. Six-week old female transgenic mice were fed ad librium with the chow diet or the diet supplemented with the four drug doses. […] At the end of the study, brains were isolated, and half brains were homogenized in a buffer containing guanidine hydrochloride and SDS. This extract was diluted and used in assays for total protein and an ELISA for Abeta levels. […] There was not a dose response in this study, as the effect appeared to plateau out even at the lowest dose of the drug, 0.31 g/kg diet. This oral diet study supported a prior finding using 3 oral gavages of this drug at an estimated dose of 200 mg/kg body weight delivered in Cremaphor over a 1.5 day period in which we observed a 30% decrease in cerebral Aβ levels (data not shown).

[6] = Body weight after one-week oral feeding; format: in vivo, mouse; settings: 0.31-2.5 g/kg in chow diet
Protocol: as §2

H4βAPP695 wt cells [7] = experiment: Cytotoxicity by total cell protein content (BCA) of H4βAPP695 wt cells; settings: cytotoxicity
H4βAPP695 wt cells [8] = settings: human, 24 h
[9] = 10 μM on H4 cells, without preincubation with hepatoma cells, read-out: hepatoma incubation No total Aβ (% decrease)
[10] = 20 μM preincubated 24 h with THLE-3 hepatoma cells, diluted to 10 μM on H4 cells, read-out: hepatoma incubation Yes total Aβ (% decrease)

Compound: CN(C)CCCn1cc(C2=C(c3c[nH]c4ccccc34)C(=O)NC2=O)c2ccccc21 [Bisindolylmaleimide I]
effect on basal Aβ secretion (Aβ secretion [1]): no effect | effect of PKC inhibitor on compound 1 inhibited Aβ secretion (Aβ secretion [1]): no effect

% remaining Activity [3]: 54% | % theoretical activity (Caco-2 cells): 71% and 70.8% | melting point: 56 to 57 °C
Compound: Cc1cccc(CSCCNC(=O)c2c(Cl)cccc2Cl)c1 [Compound 48, 2,6-Dichloro-N-[2-(3-methyl-benzylsulfanyl)-ethyl]-benzamide]
inhibition at 30 µM (Aβ secretion [2]): 85.8% | Aβ secretion inhibiting activity (structure activity summary) (Aβ secretion [2]): good activity | inhibition at 10 µM [3, 9]: 70.5% | inhibition at 10 µM [3, 10]: 38% | inhibition at 10 µM (Caco-2 cells): 70.5% | inhibition at up to 10 µM (Caco-2 cells): 50% | reduction in cerebral Aβ levels (cerebral Aβ levels [4]): 39.6% | decrease in cerebral Aβ levels, oral gavage (cerebral Aβ levels [5]): 30% | effect on body weights [6]: no significant effect | Cell protein (% decrease) 10 μM Mean (H4βAPP695 wt cells [7]): 11.7% | Cell protein (% decrease) 30 μM Mean (H4βAPP695 wt cells [7]): 16.6%

Compound: Calphostin C
effect on basal Aβ secretion (Aβ secretion [1]): no effect | effect of PKC inhibitor on compound 1 inhibited Aβ secretion (Aβ secretion [1]): no effect

Compound: COc1cccc(CSCCNC(=O)c2c([N+](=O)[O-])cccc2[N+](=O)[O-])c1 [Compound 37, N-[2-(3-Methoxy-benzylsulfanyl)-ethyl]-2,6-dinitro-benzamide]
inhibition at 10 µM (Aβ secretion [2]): -14.1% | inhibition at 30 µM (Aβ secretion [2]): -2.8% | Aβ secretion inhibiting activity (structure activity summary) (Aβ secretion [2]): not well tolerated | melting point: 69 to 71 °C | Cell protein (% decrease) 10 μM Mean (H4βAPP695 wt cells [8]): 3.7% | Cell protein (% decrease) 30 μM Mean (H4βAPP695 wt cells [8]): −3.8%

Compound: CC(=O)c1c(O)c(C)c(O)c(Cc2c(O)c3c(c(C(=O)/C=C/c4ccccc4)c2O)OC(C)(C)C=C3)c1O [Rottlerin]
effect on basal Aβ secretion (Aβ secretion [1]): reduced Aβ secretion | effect of PKC inhibitor on compound 1 inhibited Aβ secretion (Aβ secretion [1]): did not significantly alter the effect of compound 1

Compound: O=C(NCCSCc1cccc(Cl)c1)c1c([N+](=O)[O-])cccc1[N+](=O)[O-] [Compound 56, N-[2-(3-Chloro-benzylsulfanyl)-ethyl]-2,6-dinitro-benzamide]
inhibition at 10 µM (Aβ secretion [2]): 28.8% | inhibition at 30 µM (Aβ secretion [2]): 52.9% | Aβ secretion inhibiting activity (structure activity summary) (Aβ secretion [2]): not well tolerated | melting point: 139 to 140 °C | Cell protein (% decrease) 10 μM Mean (H4βAPP695 wt cells [8]): 0.1% | Cell protein (% decrease) 30 μM Mean (H4βAPP695 wt cells [8]): 17.8%

% remaining Activity [3]: 49% | % theoretical activity (Caco-2 cells): 4.0% | melting point: 83 to 84 °C
Compound: COc1cc(Cl)cc(CSCCNC(=O)c2c(Cl)cccc2Cl)c1 [Compound 73, 2,6-Dichloro-N-[2-(3-chloro-5-methoxy-benzylsulfanyl)-ethyl]-benzamide]
inhibition at 10 µM (Aβ secretion [2]): > 50% | inhibition at 30 µM (Aβ secretion [2]): 81% | Aβ secretion inhibiting activity (structure activity summary) (Aβ secretion [2]): could be tolerated | inhibition at 10 µM [3, 9]: 67.7% | inhibition at 10 µM [3, 10]: 33.5% | inhibition at 10 µM (Caco-2 cells): 67.7% | inhibition at up to 10 µM (Caco-2 cells): 2.7% | Cell protein (% decrease) 10 μM Mean (H4βAPP695 wt cells [7]): 0.9% | Cell protein (% decrease) 30 μM Mean (H4βAPP695 wt cells [7]): 0.4%
